Converted amounts (≈) assume the structure as drawn. “Also recorded” adds a separate entry of the source. Where two headings read alike, the source gives them in different places.
Assays:
[1] = system: Pseudomonas (P.) aeruginosa (ATCC 27853); experiment: MIC measurement (broth microdilution); format: cell-based; conditions: source ATCC, 18–24 h at 37 °C
[2] = system: Escherichia (E.) coli (ATCC 11775); experiment: MIC measurement (broth microdilution); format: cell-based; conditions: source ATCC, 18–24 h at 37 °C
[3] = system: Salmonella (S.) enterica (clinical isolate); experiment: MIC measurement (broth microdilution); format: cell-based; conditions: source 204/22, 18–24 h at 37 °C
Text: Bacterial strains used in this study were as follows: S. suis serotype 2 (ATCC 958242) Staphylococcus (S.) aureus (ATCC 10832), Escherichia (E.) coli (ATCC 11775), Pseudomonas (P.) aeruginosa (ATCC 27853), Pasteurella (P.) multocida (clinical isolate), Burkholderia (B.) cepacia (clinical isolate), Salmonella (S.) enterica (clinical isolate), and Enterococcus (E.) faecalis (clinical isolate). Of the clinical isolates used in this study, P. multocida is of porcine origin, B. cepacia is of human origin, and S. enterica and E. faecalis are of poultry origin. The bacterial strains were stored in the Microbiology Laboratory of the University of Veterinary Medicine, Budapest, at a temperature of −80 °C. Bacterial strains were inoculated the day before the test in 5 mL of Cation-Adjusted Mueller–Hinton Broth (CAMHB) and incubated for 18–24 h at 37 °C. The initial inoculum concentration used for the MIC assay was 5 × 10^5/mL. All wells except the first column of the working plates were filled with 90 µL CAMHB. A stock solution of inhibitors at 800 µM was then prepared, 180 µL of which was measured into the first column of plates and used to prepare a 2-based dilution on 96-well plates. After the 10th column, the tips were discarded with the 90 µL excess solution so that each column contained 90 µL of solution. Each bacterial strain was tested in a single row on the working plates. A bacterial suspension diluted to 25× was prepared on an auxiliary plate for bacterial inoculation by loading 240 µL of TSB per column of plates and adding 10–10 µL of bacterial strain suspension per well. In the next step, the isolated bacterial strains were inoculated onto the plates. Starting from column 11 (positive control) of the plates containing dilution row 2, 10 µL of bacterial suspension was added to each well, working backward. Column 11 served as a positive control (containing only bacterial suspension and broth), while column 12 served as a negative control (containing only broth). The microplates were then incubated at 37 °C for 18–24 h, and the MIC values were assessed in comparison to positive controls.

[4] = system: Pasteurella (P.) multocida (clinical isolate); experiment: MIC measurement (broth microdilution); format: cell-based; conditions: source 380/22, 18–24 h at 37 °C
[5] = system: Staphylococcus (S.) aureus (ATCC 10832); experiment: MIC measurement (broth microdilution); format: cell-based; conditions: source ATCC, 18–24 h at 37 °C
S. suis serotype 2 = experiment: MIC measurement (broth microdilution); format: cell-based, Streptococcus suis; conditions: source 672/22, 18–24 h at 37 °C
[6] = system: Burkholderia (B.) cepacia (clinical isolate); experiment: MIC measurement (broth microdilution); format: cell-based
[7] = system: Enterococcus (E.) faecalis (clinical isolate); experiment: MIC measurement (broth microdilution); format: cell-based
[8] = system: S. suis strains isolated from pigs; conditions: cited from earlier work; for S. suis strains found to be sensitive: strains isolated from pigs, European VetPath survey 2005–2012; for S. suis strains sensitive: same survey (VetPath)
CYP1A2 = target: T1, CYP1A2 (Homo sapiens, UniProt P05177); experiment: CYP enzyme fluorometric activity measurement, human hepatic microsomes; conditions: reference inhibitor at 6 µM; p < 0.001
T1 sequence (P05177 1-516): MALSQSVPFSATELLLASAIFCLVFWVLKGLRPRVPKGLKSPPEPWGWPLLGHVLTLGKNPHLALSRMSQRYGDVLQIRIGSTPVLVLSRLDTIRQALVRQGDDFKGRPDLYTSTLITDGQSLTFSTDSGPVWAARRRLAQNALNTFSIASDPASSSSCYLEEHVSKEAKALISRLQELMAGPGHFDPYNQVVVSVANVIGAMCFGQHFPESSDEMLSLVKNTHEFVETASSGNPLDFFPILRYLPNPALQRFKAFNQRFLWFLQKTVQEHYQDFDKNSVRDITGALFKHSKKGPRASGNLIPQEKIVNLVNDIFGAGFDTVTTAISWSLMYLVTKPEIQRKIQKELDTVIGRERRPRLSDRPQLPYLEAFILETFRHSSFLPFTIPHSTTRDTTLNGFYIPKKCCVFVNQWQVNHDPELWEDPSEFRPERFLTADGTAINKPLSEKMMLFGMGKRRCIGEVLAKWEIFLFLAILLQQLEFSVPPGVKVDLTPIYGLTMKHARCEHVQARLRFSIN
Method: (§1) The Biovision CYP assays (BioVision, Inc., Kampenhout, Belgium) employ non-fluorescent CYP2D6, 2C9, 2C19, 1A2, or 3A4 substrates able to undergo transformation into highly fluorescent detectable metabolites. […] Human hepatic microsomal supernatants were prepared (Gibco, Biocentre, Szeged, Hungary protein concentration: 20 mg/mL) separately by mixing 30 µL with 2425 µL assay buffer and with 50 µL nicotinamide adenine dinucleotide phosphate (NADPH) generating system (100×). […] Control measurements were performed in the absence of the inhibitors.
(§2) In background controls, only assay buffer excluding microsomes and test compounds was used in a volume of 70 µL. Subsequently, after incubation at 37 °C for 15 min, 30 µL of the suitable CYP substrate/NADP+ mixture was incorporated into each well, resulting in a final reaction volume of 100 µL/well. The obtained microsomal protein content was assessed using the bicinchoninic acid protein assay kit (Pierce BCA kit, Thermo Fisher Scientific, Waltham, MA, USA). In each assay, the microsomal protein concentration was calibrated to 100 µg/well. The fluorescence intensities were measured with a fluorometer (Victor X2 2030, Perkin Elmer, Waltham, MA, USA) using λex/em = 406/468 nm for CYP1A2 and for CYP2C19, λex/em = 415/502 nm for CYP2C9, λex/em = 390/468 nm for CYP2D6, and λex/em = 535/587 nm for CYP3A4 assays.

SARS-CoV-2 = system: SARS-CoV-2; set-up: method as in PMID 32703818; conditions: human airway cells, synergistically in combination with furin inhibitor MI-1851; cited from earlier work
IPEC-J2 cells [9] = experiment: Cell viability, Neutral red assay; format: cell-based, porcine; conditions: IPEC-J2, S. suis 10^4 CFU/mL in combination with inhibitor 50 µM, 24 h
Text: The IPEC-J2 cell line is unique as it is non-transformed and non-tumorigenic. IPEC-J2 cells are derived from intestinal enterocytes extracted from the jejunum of neonatal unsuckled piglets. IPEC-J2 cells were gifted by Dr. Jody Gookin (Department of Clinical Sciences, College of Veterinary Medicine, North Carolina State University, Raleigh, NC, USA). […] The cells had undergone passage around 50 times. […] This experiment included plain DMEM/F12 medium as a control. At the end of the final treatments (24 h), the ratio of viable cells was measured by absorbance at 540 nm wavelength with a SpectraMax iD3 microplate reader.

[10] = system: primary porcine hepatocytes; experiment: Cell viability, Neutral red assay; format: cell-based; conditions: S. suis 10^4 CFU/mL in combination with inhibitor 50 µM, 24 h
Method: Porcine cryopreserved primary hepatocytes were obtained from Primacyt Cell Culture Company (Schwerin, Germany). Lonza Group Ltd. (Biocenter Ltd., Szeged, Hungary) supplied the thawing, plating, and maintenance media. The cytotoxic effects of inhibitors MI-432, MI-471, and MI-476 were tested on the viability of primary hepatocytes using the NR method. The hepatocytes were cultivated on a 96-well plate for 24 h, followed by incubation with the inhibitors at 0, 50, and 100 µM for an additional 24 h. Only cell maintenance medium was used to incubate the control cells. The plate underwent incubation together with NR dye for 2 h. Hepatocyte viability was recorded at 540 nm with a SpectraMax iD3 microplate reader.

IPEC-J2 cells [11] = experiment: EC H2O2 production, Amplex red method; format: cell-based, porcine; conditions: 24 h
Method: For oxidative status measurements, inhibitors MI-432, MI-471, or MI-476 were used at 50 µM in the absence and presence of S. suis for 24 h in IPEC-J2 cells and in primary porcine hepatocytes on 24-well plates. An Amplex red hydrogen peroxide assay kit was used to monitor EC hydrogen peroxide (H₂O₂) production in IPEC-J2 cells and in hepatocytes. Following the manufacturer’s instructions, cell-free supernatants were collected and mixed with the Amplex red working solution (in a ratio of 1:1). A Victor X2 2030 fluorometer was used to detect fluorescence intensity at wavelengths 530 nm and 590 nm for excitation and emission, respectively.

IPEC-J2 cells [12] = experiment: IL-6 production, porcine IL-6 ELISA; format: cell-based; conditions: IPEC-J2, S. suis 10^4 CFU/mL in combination with inhibitor, 24 h
Method: (§3) After 24 h incubation time, the cell-free supernatants from […], MI-471, and MI-476 exposure were sampled from IPEC-J2 cells and from porcine hepatocytes. The changes in cytokine levels were detected with porcine IL-6 ELISA kits. The manufacturer’s instructions were followed to treat the supernatants and measured by a SpectraMax iD3 microplate reader at 450 nm.

porcine hepatocytes = experiment: IL-6 production, porcine IL-6 ELISA; format: cell-based; conditions: S. suis 10^4 CFU/mL in combination with inhibitor, 24 h
Method: as §3

monkey CYP1A2 enzymes = conditions: cited from earlier work
CYP2D6 = CYP2D6 (Homo sapiens, UniProt P10635); experiment: CYP enzyme fluorometric activity measurement, human hepatic microsomes; conditions: reference inhibitor at 3 µM; p < 0.05
Chain of CYP2D6 (P10635 whole entry): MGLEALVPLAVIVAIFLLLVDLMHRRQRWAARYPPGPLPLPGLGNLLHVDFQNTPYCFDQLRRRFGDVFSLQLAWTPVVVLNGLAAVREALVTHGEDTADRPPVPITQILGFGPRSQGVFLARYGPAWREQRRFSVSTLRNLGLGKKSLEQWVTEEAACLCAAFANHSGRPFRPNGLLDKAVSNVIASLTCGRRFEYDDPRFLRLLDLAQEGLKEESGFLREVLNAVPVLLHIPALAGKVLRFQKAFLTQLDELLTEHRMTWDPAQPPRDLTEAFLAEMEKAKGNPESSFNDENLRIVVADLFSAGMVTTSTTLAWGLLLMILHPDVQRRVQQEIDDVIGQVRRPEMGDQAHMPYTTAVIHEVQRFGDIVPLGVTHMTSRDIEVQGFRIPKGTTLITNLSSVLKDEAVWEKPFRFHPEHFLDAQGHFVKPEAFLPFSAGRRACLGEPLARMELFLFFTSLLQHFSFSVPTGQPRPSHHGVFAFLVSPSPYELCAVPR
Method: as §1, §2

[13] = B. cepacia, source 20-10299, 18–24 h at 37 °C, read-out: MIC
[14] = E. fecalis, source 442, 18–24 h at 37 °C, read-out: MIC

COc1ccc(-c2cccc(S(=O)(=O)N[C@@H](Cc3cccc(C(=N)N)c3)C(=O)N3CCC(NC(=O)NC(C)(C)C)CC3)c2)c(OC)c1 [MI-485]
MIC [1]: >800 µM | MIC [2]: >800 µM | MIC [3]: >800 µM | MIC [4]: >800 µM | MIC [5]: 100 to 200 µM | MIC ([5]; read-out: MIC): 200 µM (≈ 133 µg/mL) | MIC (S. suis serotype 2): 50 µM (≈ 33.2 µg/mL) | MIC [6, 13]: 800 µM (≈ 532 µg/mL) | MIC [7, 14]: >800 µM

amoxicillin–clavulanic acid
S. suis strains found to be sensitive [8]: 100%

O=c1cc(-c2ccccc2)oc2c1ccc1ccccc12 [α-naphthoflavone, reference compound]
CYP1A2 activity (CYP1A2): significantly suppressed

COc1ccc(-c2cccc(S(=O)(=O)N[C@@H](Cc3cccc(C(=N)N)c3)C(=O)N3CCN(C(=O)NC4CCCCC4)CC3)c2)c(OC)c1 [MI-1900, reference compound]
efficacy against SARS-CoV-2 (SARS-CoV-2): effective

N=C(N)c1cccc(C[C@H](NS(=O)(=O)c2cccc(-c3ccc(Cl)cc3Cl)c2)C(=O)N2CCC(CCN)CC2)c1 [MI-432]
MIC [2]: > 800 µM | MIC [3]: > 800 µM | MIC ([5]; read-out: MIC): 50 µM (≈ 30.1 µg/mL) | MIC (S. suis serotype 2; Streptococcus suis): 1.5 µM (≈ 0.904 µg/mL) | MIC (S. suis serotype 2): < 1.5625 µM | MIC (S. suis serotype 2; listed as 432): <1.5625 µM | MIC [6]: 800 µM (≈ 482 µg/mL) | MIC ([7]; Enterococcus): > 800 µM | cell viability (IPEC-J2 cells [9]): slightly less worsening of the cells; also recorded: reduction in the number of viable cells | cell viability [10]: significantly decreased cell viability; also recorded: reduction in the number of viable cells | EC H2O2 production (IPEC-J2 cells [11]; IPEC-J2, S. suis 10^4 CFU/mL in combination with inhibitor 50 µM): unchanged H₂O₂ production; also recorded: antioxidant properties | EC H2O2 production (IPEC-J2 cells [11]; IPEC-J2, inhibitor alone 50 µM): unchanged H₂O₂ production | IL-6 levels (IPEC-J2 cells [12]): significant anti-inflammatory effects | IL-6 levels (porcine hepatocytes): significant anti-inflammatory effects | efficacy against SARS-CoV-2 (SARS-CoV-2): effective | inhibition of monkey CYP1A2 enzymes (monkey CYP1A2 enzymes): significant inhibition

CS(=O)(=O)c1ccc([C@@H](O)[C@@H](CF)NC(=O)C(Cl)Cl)cc1 [florfenicol]
S. suis strains sensitive [8]: more than 95%

CCN1CCN(c2cc3c(cc2F)c(=O)c(C(=O)O)cn3C2CC2)CC1 [enrofloxacin]
S. suis strains sensitive [8]: more than 95%

CN(C)[C@@H]1C(O)=C(C(N)=O)C(=O)[C@@]2(O)C(O)=C3C(=O)c4c(O)cccc4[C@@](C)(O)[C@H]3C[C@@H]12 [tetracycline]
S. suis strains sensitive [8]: 4%

C=C[C@H]1C[N@@]2CC[C@H]1C[C@@H]2[C@@H](O)c1ccnc2ccc(OC)cc12 [quinidine]
CYP2D6 activity (CYP2D6): significantly suppressed

COc1ccc(-c2cccc(S(=O)(=O)N[C@@H](Cc3cccc(C(=N)N)c3)C(=O)N3CCC(N)CC3)c2)c(OC)c1 [MI-472]
MIC [1]: >800 µM | MIC [2]: >800 µM | MIC [3]: >800 µM | MIC [4]: 400 µM (≈ 226 µg/mL) | MIC ([5]; read-out: MIC): 800 µM (≈ 453 µg/mL) | MIC (S. suis serotype 2): 50 µM (≈ 28.3 µg/mL) | MIC [6, 13]: 800 µM (≈ 453 µg/mL) | MIC [7, 14]: >800 µM

CO/N=C(\C(=O)N[C@@H]1C(=O)N2C(C(=O)O)=C(CSC(=O)c3ccco3)CS[C@H]12)c1csc(N)n1 [ceftiofur]
S. suis strains found to be sensitive [8]: 97%
